Test results taken from paper PMC8536978 (Viruses, 2021).
Where two headings read alike, the source gives them in different places.

Legend:
HIV-1 IIIB [1] = assay: HIV-1 IIIB replication in CEM T cells (p24 ELISA, gag mRNA RT-PCR); format: cell-based; settings: CEM T cells infected with HIV-1 IIIB; for reduction in p24 levels: p24 ELISA; for reduction of HIV-1 gag mRNA: real-time RT-PCR
[2] = target: Tat–cyclin T1 interaction (UniProt O60563+P04608); assay: Co-immunoprecipitation of cyclin T1 with Flag-Tat from 293T cells; format: cell-based; settings: 24 h; for reduction of cyclin T1 associated with Tat: 20 μM
Tat–cyclin T1 interaction, sequence (P04608 whole entry): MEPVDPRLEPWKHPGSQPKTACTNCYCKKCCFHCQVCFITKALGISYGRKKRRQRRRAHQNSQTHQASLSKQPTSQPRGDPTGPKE
Tat–cyclin T1 interaction, sequence (O60563 whole entry): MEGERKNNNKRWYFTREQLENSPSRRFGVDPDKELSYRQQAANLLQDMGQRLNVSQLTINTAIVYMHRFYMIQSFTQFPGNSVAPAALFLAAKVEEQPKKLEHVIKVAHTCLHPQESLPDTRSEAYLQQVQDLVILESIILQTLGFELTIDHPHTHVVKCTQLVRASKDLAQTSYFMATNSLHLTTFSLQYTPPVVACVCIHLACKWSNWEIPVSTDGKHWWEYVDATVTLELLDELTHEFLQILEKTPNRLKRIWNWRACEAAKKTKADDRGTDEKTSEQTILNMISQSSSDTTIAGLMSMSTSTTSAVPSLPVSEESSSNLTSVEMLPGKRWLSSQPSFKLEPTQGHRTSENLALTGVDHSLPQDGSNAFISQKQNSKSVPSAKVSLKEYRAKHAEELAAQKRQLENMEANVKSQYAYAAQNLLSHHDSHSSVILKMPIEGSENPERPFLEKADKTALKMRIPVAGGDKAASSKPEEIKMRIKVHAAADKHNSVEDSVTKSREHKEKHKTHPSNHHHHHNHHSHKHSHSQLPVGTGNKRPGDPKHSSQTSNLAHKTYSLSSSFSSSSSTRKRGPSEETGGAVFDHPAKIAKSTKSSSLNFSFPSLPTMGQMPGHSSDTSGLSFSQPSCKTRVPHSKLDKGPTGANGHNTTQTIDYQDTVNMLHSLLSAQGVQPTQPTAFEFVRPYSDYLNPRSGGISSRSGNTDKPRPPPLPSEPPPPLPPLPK

HIV-1 IIIB [3] = assay: HIV-1 IIIB replication in PBMCs (p24 ELISA, gag and nef mRNA RT-PCR); format: cell-based; settings: for reduction in p24 / reduction in HIV-1 nef mRNA / reduction in gag mRNA: PBMCs infected with HIV-1 IIIB; for reduction in p24: p24 ELISA; for reduction in HIV-1 nef mRNA / reduction in gag mRNA: real-time RT-PCR
Tat–CDK9 interaction = Tat–CDK9 interaction (UniProt P04608+P50750); assay: Co-immunoprecipitation of CDK9 with Flag-Tat from 293T cells; format: cell-based; settings: 20 μM, 24 h
Tat–CDK9 interaction, sequence (P04608 whole entry): as the sequence (P04608 whole entry) above
Tat–CDK9 interaction, sequence (P50750 whole entry): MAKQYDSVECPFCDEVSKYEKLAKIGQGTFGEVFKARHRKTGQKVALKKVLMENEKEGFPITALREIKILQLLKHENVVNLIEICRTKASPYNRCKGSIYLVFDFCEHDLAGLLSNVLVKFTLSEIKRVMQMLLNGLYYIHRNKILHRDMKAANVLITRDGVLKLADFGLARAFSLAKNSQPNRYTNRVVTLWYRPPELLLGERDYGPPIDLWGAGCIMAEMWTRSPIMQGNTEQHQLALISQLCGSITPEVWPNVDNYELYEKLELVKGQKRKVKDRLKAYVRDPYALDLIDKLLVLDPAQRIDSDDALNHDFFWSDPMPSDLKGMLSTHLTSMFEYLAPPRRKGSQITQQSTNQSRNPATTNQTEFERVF

[4] = MTT cell proliferation/viability assay; format: cell-based; settings: human, CEM T cells, 1-100 μM
[5] = system: HIV-1-LUC-G (VSVG pseudotyped HIV-1 expressing luciferase); assay: microbe, parasite or virus in culture; format: cell-based; settings: for IC50: read-out: One round HIV-1 infection IC50
HIV-1 LTR + Tat = format: cell-based; settings: Human immunodeficiency virus 1, HEK-293T, 24 h, read-out: HIV-1 LTR + Tat (Tat-induced transcription) IC50
luciferase translation = assay: In vitro translation of luciferase RNA in rabbit reticulocyte lysate; format: biochemical; settings: 30 μM, 90 min
HIV-1 LTR = assay: Basal HIV-1 transcription, HIV-1 LTR-luciferase reporter in 293T cells; format: cell-based; settings: HIV-1 LTR-luciferase reporter alone, 24 h treatment
PBMCs = assay: Trypan blue exclusion viability of HIV-1 IIIB infected PBMCs; format: cell-based
Tat–TAR RNA interaction = Tat–TAR RNA interaction pull-down assay; format: binding, HIV-1; settings: 10 µM compound, Flag-Tat lysate, biotinylated TAR RNA on beads
TAR RNA = system: TAR RNA; set-up: method as in earlier work; settings: cited from earlier work
[6] = system: HIV-1 reverse transcription; assay: HIV-1 reverse transcription, early and late LTR DNA products by real-time PCR; format: cell-based; settings: HIV-1 DNA 6 h post infection
[7] = Human immunodeficiency virus 1, T-cell

SMILES	reduction in p24 levels (HIV-1 IIIB [1]) [fold]	reduction of HIV-1 gag mRNA (HIV-1 IIIB [1]) [fold]	reduction in p24 (HIV-1 IIIB [3])	reduction in HIV-1 nef mRNA (HIV-1 IIIB [3])	reduction in CDK9 associated with Tat (Tat–CDK9 interaction)	EC50 at 24 h [4] [µM]	Luciferase (%, relative to DMSO control) [5] [%]	IC50 [5, 7] [µM]	IC50 [5] [µM]	IC50 (HIV-1 LTR + Tat) [µM]	reduction in gag mRNA (HIV-1 IIIB [3])	further results
O=C1OCCC1Sc1nnc(-c2sc3ccccc3c2Cl)o1 (centres unmarked) [T5628834]	1.26	1.6	3.2 fold	no effect	4 fold	> 100	28.71	3.46	3.7	20	–	reduction of cyclin T1 associated with Tat [2]: 1.6 fold
C[C@@H]1C[C@@H]([C@H](O)CC2CC(=O)NC(=O)C2)C(=O)[C@@H](C)C1 [cycloheximide, reference compound]	–	–	–	–	–	–	–	–	–	–	–	reduction in luciferase translation (luciferase translation): completely blocked translation
O=C(O)COc1ccc(/C=C/C(=O)c2ccc3c(c2)OCO3)cc1 [T6780107]	2.2	5.5	No significant effect	no effect	no effect	> 100	18.24	2.97	3.7	3.5	No significant effect	reduction of cyclin T1 associated with Tat [2]: no significant effect; IC50 (HIV-1 LTR): 4.63 µM
Cc1nnc(C(=O)NC(C)(C)c2nc(C(=O)NCc3ccc(F)cc3)c(O)c(=O)n2C)o1 [raltegravir, reference compound]	–	–	–	–	–	–	–	–	–	–	strongly inhibited HIV-1	reduction of PBMCs viability (PBMCs; HIV-1 IIIB infected PBMCs, trypan blue exclusion): 18%
Nc1ccc2oc(-c3cc(F)c(F)cc3Cl)nc2c1 [T0516-4834]	4	27	4 fold	10 fold	1.4 fold	> 100	37.74	0.2	0.3	2	2.5 fold	inhibition of Tat binding to TAR RNA (Tat–TAR RNA interaction): 2.5 fold; inhibition at 20 µM ([2]; HEK-293T, read-out: reduction of cyclin T1 associated with Tat): < 20%; HIV-1 inhibition (HIV-1 IIIB [3]; HIV-1 IIIB infected PBMCs, 10 µM): ~ 10 fold; reduction in luciferase translation (luciferase translation): ~ 30%
CC(=O)c1ccc2c(c1)N(CCCN(C)C)c1ccccc1S2 [acetylpromazine]	–	–	–	–	–	–	–	–	–	–	–	affinity of binding to TAR RNA (TAR RNA): high affinity (nanomolar)
Cc1cn([C@H]2C[C@H](N=[N+]=[N-])[C@@H](CO)O2)c(=O)[nH]c1=O [AZT, azidothymidine]	–	–	–	–	–	–	–	–	–	–	strongly inhibited HIV-1	reduction of PBMCs viability (PBMCs; human, 48 h): 29%; reduction of HIV-1 early LTR products [6]: 1.8 fold; reduction of HIV-1 late LTR products [6]: 63 fold
